This experiment has as its target Cdk9/cyclinT1 (Homo sapiens (Human), UniProt P50750). Nature of the experiment: Cdk9/CyclinT1 IMAP Protocol (fluorescence polarization kinase assay). The experiment is classed as biochemical. The note with it: Table 2; generated using one of the two Cdk9/cyclinT1 assays (IMAP or Alpha Screen), not specified which; unit inferred. As for the experimental part: Cdk9/CyclinT1 IMAP Protocol
The biological activity of the compounds of the invention can be determined using the assay described below.
Cdk9/cyclinT1 is purchased from Millipore, cat #14-685. The final total protein concentration in the assay 4 nM. […] The final concentration of peptide substrate is 100 nM. The ATP substrate (Adenosine-5′-triphosphate) is purchased from Roche Diagnostics, cat#1140965. The final concentration of ATP substrate is 6 uM. IMAP (Immobilized Metal Assay for Phosphochemicals) Progressive Binding reagent is purchased from Molecular Devices, cat#R8139. Fluorescence polarization (FP) is used for detection. The 5TAMRA-cdk7tide peptide is phosphorylated by Cdk9/cyclinT1 kinase using the ATP substrate. The Phospho-5TAMRA-cdk7tide peptide substrate is bound to the IMAP Progressive Binding Reagent. The binding of the IMAP Progressive Binding Reagent changes the fluorescence polarization of the 5TAMRA-cdk7tide peptide which is measured at an excitation of 531 nm and FP emission of 595 nm. Assays are carried out in 100 mM Tris, pH=7.2, mM MgCl2, 0.05% NaN3, 0.01% Tween-20, 1 mM dithiothreitol and 2.5% dimethyl sulfoxide. IMAP Progressive Binding Reagent is diluted 1:800 in 100% 1× Solution A from Molecular Devices, cat#R7285.
General protocol is as follows: To 10 ul of cdk9/cyclinT1, 0.5 ul of test compound in dimethyl sulfoxide is added. 5TAMRA-cdk7tide and ATP are mixed. 10 ul of the 5TAMRA-cdk7tide/ATP mix is added to start the reaction. The reaction is allowed to proceed for 4.5 hrs. 60 uL of IMAP Progressive Binding Reagent is added. After >1 hr of incubation, plates are read on the Envision 2101 from Perkin-Elmer. The assay is run in a 384-well format using black Corning plates, cat#3573.
Sequence of Cdk9/cyclinT1 (P50750 whole entry): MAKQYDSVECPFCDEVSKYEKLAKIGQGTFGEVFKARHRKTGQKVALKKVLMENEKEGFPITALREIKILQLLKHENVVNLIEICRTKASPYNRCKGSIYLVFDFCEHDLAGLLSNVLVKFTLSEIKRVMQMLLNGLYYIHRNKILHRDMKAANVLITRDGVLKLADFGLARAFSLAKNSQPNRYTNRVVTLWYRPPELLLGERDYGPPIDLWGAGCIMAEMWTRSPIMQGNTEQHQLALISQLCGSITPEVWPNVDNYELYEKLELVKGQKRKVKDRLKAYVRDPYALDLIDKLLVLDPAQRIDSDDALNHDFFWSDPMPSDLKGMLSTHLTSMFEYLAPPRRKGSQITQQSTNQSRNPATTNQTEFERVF
Sequence of Cdk9/cyclinT1 (O60563 whole entry partner): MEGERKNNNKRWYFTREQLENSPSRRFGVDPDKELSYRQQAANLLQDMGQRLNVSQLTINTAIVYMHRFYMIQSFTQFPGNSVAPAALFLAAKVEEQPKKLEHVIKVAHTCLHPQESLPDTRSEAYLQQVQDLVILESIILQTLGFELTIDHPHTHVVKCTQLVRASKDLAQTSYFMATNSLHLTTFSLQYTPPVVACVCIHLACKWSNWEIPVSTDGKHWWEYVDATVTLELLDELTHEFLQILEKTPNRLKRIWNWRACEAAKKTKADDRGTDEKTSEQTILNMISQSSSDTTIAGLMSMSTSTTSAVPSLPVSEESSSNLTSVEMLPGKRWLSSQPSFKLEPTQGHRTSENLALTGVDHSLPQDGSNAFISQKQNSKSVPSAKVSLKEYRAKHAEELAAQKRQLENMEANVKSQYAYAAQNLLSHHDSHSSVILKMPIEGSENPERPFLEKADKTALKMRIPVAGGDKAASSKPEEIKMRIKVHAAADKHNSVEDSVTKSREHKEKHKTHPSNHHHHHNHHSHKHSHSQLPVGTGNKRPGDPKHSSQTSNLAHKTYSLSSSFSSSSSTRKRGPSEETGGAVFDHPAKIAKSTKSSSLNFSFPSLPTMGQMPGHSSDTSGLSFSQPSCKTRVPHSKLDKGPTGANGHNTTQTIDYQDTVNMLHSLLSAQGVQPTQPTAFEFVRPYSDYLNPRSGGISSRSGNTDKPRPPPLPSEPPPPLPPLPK
In turn, `N[C@H]1CC[C@H](Nc2cc(-c3cccc(NCc4ccncc4)n3)ccn2)CC1` [Compound 33] showed an IC50 of 27 nM.
Compound `N[C@H]1CC[C@H](Nc2ncc(Cl)c(-c3cccc(NCc4cccc(F)c4)n3)n2)CC1` [Compound 34] yielded a half-maximal inhibitory concentration (IC50) of 48.3 nM.
Take `N[C@H]1CC[C@H](Nc2ncc(Cl)c(-c3cccc(NCc4ccncc4)n3)n2)CC1` [Compound 35]: the IC50 is 55.8 nM.
In the case of `N[C@H]1CC[C@H](Nc2cc(-c3cccc(NCc4cccc(OC(F)F)c4)n3)c(Cl)cn2)CC1` [Compound 36] it was 8.91 nM.
`N[C@H]1CC[C@H](Nc2cc(-c3cccc(NCc4cccc(Cl)c4)n3)c(Cl)cn2)CC1` [Compound 37] showed an IC50 of 7.95 nM.
`N[C@H]1CC[C@H](Nc2cc(-c3cccc(NCc4cncc(F)c4)n3)c(Cl)cn2)CC1` [Compound 38] came in with an IC50 of 7.95 nM.
For `N[C@H]1CC[C@H](Nc2cc(-c3cccc(NCc4cc(F)ccc4F)n3)c(Cl)cn2)CC1` [Compound 39], the IC50 was 8.9 nM.
For the compound `N[C@H]1CC[C@H](Nc2cc(-c3cccc(NCc4ccccc4F)n3)c(Cl)cn2)CC1` [Compound 41], the IC50 was 12.9 nM.
The compound `N[C@H]1CC[C@H](Nc2cc(-c3cccc(NCc4ccccc4Cl)n3)c(Cl)cn2)CC1` [Compound 42] yielded an IC50 of 48.1 nM. This IC50 is about 3.7-fold higher than that of the compound before.
In the case of `COc1cccc(CNc2cccc(-c3cc(N[C@H]4CC[C@H](N)CC4)ncc3Cl)n2)c1` [Compound 44], the IC50 is 11.2 nM.
On to `N[C@H]1CC[C@H](Nc2cc(-c3cccc(NCc4cccc(C(F)(F)F)c4)n3)c(Cl)cn2)CC1` [Compound 47], for which the IC50 was determined as 7.95 nM.
In the case of `N[C@H]1CC[C@H](Nc2cc(-c3cccc(NCc4cccc(Br)c4)n3)c(Cl)cn2)CC1` [Compound 48], the midpoint of inhibition, the IC50, lay at 7.94 nM.
In the case of `N[C@H]1CC[C@H](Nc2cc(-c3cccc(NCc4cccc(O)c4)n3)c(Cl)cn2)CC1` [Compound 49] it was 14.4 nM; in that of `Cc1ccc(CNc2cccc(-c3cc(N[C@H]4CC[C@H](N)CC4)ncc3Cl)n2)cc1` [Compound 51], 17.4 nM; in that of `N[C@H]1CC[C@H](Nc2cc(-c3cccc(NCc4ccc(C(F)(F)F)cc4)n3)c(Cl)cn2)CC1` [Compound 52], 19.2 nM.
On to `N[C@H]1CC[C@H](Nc2cc(-c3cccc(NCc4ccc(OC(F)F)cc4)n3)c(Cl)cn2)CC1` [Compound 53], for which half-maximal inhibition (IC50) required 11.1 nM.
In turn, `N[C@H]1CC[C@H](Nc2cc(-c3cccc(NCc4ccc(OC(F)(F)F)cc4)n3)c(Cl)cn2)CC1` [Compound 54] had an IC50 of 23.2 nM.
Compound `N[C@H]1CC[C@H](Nc2cc(-c3cccc(NCc4ccc(Cl)cc4)n3)c(Cl)cn2)CC1` [Compound 55] had an IC50 of 7.95 nM. Against the preceding compound, the IC50 is about 2.9-fold lower.
Compound `NC[C@H]1CC[C@H](Nc2cc(-c3cccc(NCC4CCCCC4)n3)c(Cl)cn2)CC1` [Compound 56] had an IC50 of 39.3 nM. Against the preceding compound, the IC50 is about 4.9-fold higher.
In the case of `NC[C@H]1CC[C@H](Nc2cc(-c3cccc(NCc4ccccc4)n3)c(Cl)cn2)CC1` [Compound 57], half-maximal inhibition (IC50) was put at 32.6 nM.
On to `NC[C@H]1CC[C@H](Nc2cc(-c3cccc(NCc4cccnc4)n3)c(Cl)cn2)CC1` [Compound 58], for which it took 31.2 nM to reach half-maximal inhibition (IC50).
On to `NC[C@H]1CC[C@H](Nc2cc(-c3cccc(NCc4cncc(F)c4)n3)c(Cl)cn2)CC1` [Compound 59], for which the IC50 is 9.13 nM. This IC50 lies about 3.4-fold lower than the previous one.
In turn, `NC[C@H]1CC[C@H](Nc2cc(-c3cccc(NCc4ccncc4)n3)c(Cl)cn2)CC1` [Compound 60] had an IC50 of 7.95 nM. This IC50 and that of the compound before are within 1.5-fold of each other.
To `NC[C@H]1CC[C@H](Nc2cc(-c3cccc(NCc4cc(F)ccc4F)n3)c(Cl)cn2)CC1` [Compound 61] belongs 18.1 nM; to `NC[C@H]1CC[C@H](Nc2cc(-c3cccc(NCc4cccc(Cl)c4)n3)c(Cl)cn2)CC1` [Compound 62], 7.95 nM.
In the case of `NC[C@H]1CC[C@H](Nc2cc(-c3cccc(NCc4cccc(OC(F)F)c4)n3)c(Cl)cn2)CC1` [Compound 64], the IC50 amounted to 54.6 nM.
Consider `NC[C@H]1CC[C@H](Nc2cc(-c3cccc(NCc4ccc(F)cc4)n3)c(Cl)cn2)CC1` [Compound 66], for which half-maximal inhibition (IC50) was put at 17.1 nM.
To `CC(C)(C)OC(=O)N1CCC(Nc2cc(-c3cccc(NCc4cccc(F)c4)n3)c(Cl)cn2)CC1` [Compound 67] belongs 2550 nM; to `Clc1cnc(NC2CCNCC2)cc1-c1cccc(NCC2CCCCC2)n1` [Compound 68], 274 nM.
The compound `Clc1cnc(NC2CCNCC2)cc1-c1cccc(NCc2ccccc2)n1` [Compound 69] displayed an IC50 of 154 nM.
The compound `Fc1cncc(CNc2cccc(-c3cc(NC4CCNCC4)ncc3Cl)n2)c1` [Compound 70] came in with an IC50 of 173 nM.
For the compound `Fc1cc(F)cc(CNc2cccc(-c3cc(NC4CCNCC4)ncc3Cl)n2)c1` [Compound 71], the IC50 was found to be 27.4 nM.
In turn, `Clc1cnc(NC2CCNCC2)cc1-c1cccc(NCc2ccncc2)n1` [Compound 72] had an IC50 of 114 nM.
`Clc1cccc(CNc2cccc(-c3cc(NC4CCNCC4)ncc3Cl)n2)c1` [Compound 73] gave a 50% inhibitory concentration (IC50) of 35.2 nM.
Compound `Fc1ccc(CNc2cccc(-c3cc(NC4CCNCC4)ncc3Cl)n2)cc1F` [Compound 74] gave an IC50 of 41.6 nM.
With `N[C@H]1CC[C@H](Nc2cc(-c3cccc(NCC4CCCCCC4)n3)c(Cl)cn2)CC1` [Compound 75], inhibition was half-maximal at 13.5 nM (IC50).
In the case of `CN(Cc1ccccc1)c1cccc(-c2cc(N[C@H]3CC[C@H](N)CC3)ncc2Cl)n1` [Compound 76], the IC50 was 11.1 nM.
In the case of `CN(Cc1cccc(F)c1)c1cccc(-c2cc(N[C@H]3CC[C@H](N)CC3)ncc2Cl)n1` [Compound 77] it was 7.95 nM; in that of `CCS(=O)(=O)N[C@H]1CC[C@H](Nc2cc(-c3cccc(NCc4cccc(F)c4)n3)c(Cl)cn2)CC1` [Compound 78], 24.2 nM.
`CCS(=O)(=O)NC[C@H]1CC[C@H](Nc2cc(-c3cccc(NCc4cccc(F)c4)n3)c(Cl)cn2)CC1` [Compound 79] displayed an IC50 of 7.95 nM.
To `CN1CCC[C@H]1C(=O)N[C@H]1CC[C@H](Nc2cc(-c3cccc(NCc4cccc(F)c4)n3)c(Cl)cn2)CC1` [Compound 80] belongs 31.7 nM.
The compound `O=C(N[C@H]1CC[C@H](Nc2cc(-c3cccc(NCc4cccc(F)c4)n3)c(Cl)cn2)CC1)c1cccnc1` [Compound 81] gave a concentration for half-maximal inhibition (IC50) of 54.2 nM.
To `CN(C)CC(=O)NC[C@H]1CC[C@H](Nc2cc(-c3cccc(NCc4cccc(F)c4)n3)c(Cl)cn2)CC1` [Compound 82] belongs 9.05 nM; to `CN1CCC[C@H]1C(=O)NC[C@H]1CC[C@H](Nc2cc(-c3cccc(NCc4cccc(F)c4)n3)c(Cl)cn2)CC1` [Compound 83], 11.6 nM; to `O=C(NC[C@H]1CC[C@H](Nc2cc(-c3cccc(NCc4cccc(F)c4)n3)c(Cl)cn2)CC1)c1cccnc1` [Compound 84], 14.1 nM.
Consider `CN(C)CC(=O)N1CCC(Nc2cc(-c3cccc(NCc4cccc(F)c4)n3)c(Cl)cn2)CC1` [Compound 85], for which inhibition was half-maximal at 68.5 nM (IC50).
Regarding `CN1CCC[C@H]1C(=O)N1CCC(Nc2cc(-c3cccc(NCc4cccc(F)c4)n3)c(Cl)cn2)CC1` [Compound 86], inhibition was half-maximal at 81.5 nM (IC50).
`O=C(c1cccnc1)N1CCC(Nc2cc(-c3cccc(NCc4cccc(F)c4)n3)c(Cl)cn2)CC1` [Compound 87] showed an IC50 of 69 nM.
`CCN[C@H]1CC[C@H](Nc2cc(-c3cccc(NCc4cccc(F)c4)n3)c(Cl)cn2)CC1` [Compound 88] returned an IC50 of 11 nM. This IC50 is about 6.3-fold lower than that of the compound before.
Regarding `Clc1cnc(N[C@@H]2CCCNC2)cc1-c1cccc(NCC2CCCCC2)n1` [Compound 89], the IC50 stood at 2580 nM. Against the preceding compound, the IC50 is about 230-fold higher.
As to `Clc1cnc(N[C@@H]2CCCNC2)cc1-c1cccc(NCC2CCOCC2)n1` [Compound 90], the IC50 was determined as 2960 nM.
For the compound `Fc1cccc(CNc2cccc(-c3cc(N[C@@H]4CCCNC4)ncc3Cl)n2)c1` [Compound 91], the IC50 amounted to 336 nM.
The compound `Fc1cc(F)cc(CNc2cccc(-c3cc(N[C@@H]4CCCNC4)ncc3Cl)n2)c1` [Compound 92] returned an IC50 of 296 nM.
To `Clc1cnc(N[C@@H]2CCCNC2)cc1-c1cccc(NCc2ccncc2)n1` [Compound 93] belongs 928 nM.
Compound `Fc1ccc(CNc2cccc(-c3cc(N[C@@H]4CCCNC4)ncc3Cl)n2)cc1F` [Compound 94] returned an IC50 of 507 nM.
To `Clc1cnc(N[C@H]2CCCNC2)cc1-c1cccc(NCC2CCCCC2)n1` [Compound 95] belongs 1950 nM; to `Clc1cnc(N[C@H]2CCCNC2)cc1-c1cccc(NCC2CCOCC2)n1` [Compound 96], 1280 nM; to `Fc1cccc(CNc2cccc(-c3cc(N[C@H]4CCCNC4)ncc3Cl)n2)c1` [Compound 97], 339 nM.
As for `Fc1cc(F)cc(CNc2cccc(-c3cc(N[C@H]4CCCNC4)ncc3Cl)n2)c1` [Compound 98], the IC50 amounted to 416 nM. This IC50 and that of the compound before are within 1.5-fold of each other.
To `Clc1cnc(N[C@H]2CCCNC2)cc1-c1cccc(NCc2ccncc2)n1` [Compound 99] belongs 679 nM; to `Fc1ccc(CNc2cccc(-c3cc(N[C@H]4CCCNC4)ncc3Cl)n2)cc1F` [Compound 100], 309 nM.

The record behind these values is patent publication US8778951B2, “Heteroaryl compounds and their uses” (Novartis AG, priority 2009, dated 2014).
